Laboratory results: patent US20240407993A1, “PEPTIDE HAVING ANTI-AGING ACTIVITY, AND USE THEREOF” (CAREGEN CO., LTD., priority 2021, published 2024)

Experiments:
[1] = tested on: Elastin; test: Elastin gene expression by RT-PCR in fibroblasts; assay type: cell-based, mouse; conditions: NIH3T3 cells, peptide 1, 10, 50 μM, 24 hours; FIGS. 1A, 1D
Procedure: First, NIH3T3 cells (mouse fibroblast cell line) were seeded in a 6-well plate at a cell density of 3×10^5 cell/well, and then the cells were cultured in DMEM medium containing 10% fetal bovine serum (FBS) for 24 hours. The cultured cells were washed once with serum free DMEM medium, and the peptide of the present invention was mixed in 1 mL of the serum free DMEM medium at each of concentrations of 1, 10, and 50 μM, and dispensed into the cells. A positive control (PC) was treated with 5 ng/ml of TGF-β1 instead of the above peptide. The cells were cultured in a CO2 incubator at 37° C. for 24 hours.
The cultured cells were washed twice with PBS, and RNA was extracted from the cells using easy blue (iNtRON, Cat. No.: 17061, Korea). The amount of RNA extracted was quantified, 1,000 ng of RNA was added per tube, and RT reaction was performed using a kit (enzynomics, Cat. No.: PT200, Korea). RT-PCR was performed using a PCR kit (enzynomics, Cat. No.: […], Korea). The sequences of the primers of collagen, fibronectin, and elastin used in RT-PCR and the sequence of the primer of GAPDH used to compare the total RNA amount of each treatment group are shown in [Table 2].

[2] = tested on: SIRT1; test: SIRT1 mRNA level by RT-PCR in keratinocytes; assay type: cell-based, human; conditions: HaCaT cells, peptide 1, 10, 50 μM, 24 hours; FIGS. 3A, 3B
Procedure: First, HaCaT cells were seeded in a 6-well plate at a cell density of 3×10^5 cell/well, and then the cells were cultured in DMEM medium containing 10% fetal bovine serum (FBS) for 24 hours. The cultured cells were washed once with serum free DMEM medium, and then the peptide of the present invention was mixed in 1 mL of the serum free DMEM medium at each of concentrations of 1, 10, and 50 μM, and dispensed into the cells. A positive control (PC) was treated with 100 nM of EGF instead of the above peptide. The cells were cultured in a CO2 incubator at 37° C. for 24 hours.
The cultured cells were washed twice with PBS, and then RNA was extracted from the cells using easy blue (iNtRON, Cat. No.: 17061, Korea). The extracted RNA was subjected to RT reaction using a kit (enzynomics, Cat. No.: RT200, Korea). Thereafter, RT-PCR was performed using a PCR kit (enzynomics, Cat. No.: R581T, Korea). The sequences of the primers of AQP3 and SIRT1 used in RT-PCR and the sequence of the primer of GAPDH used to compare the total RNA amount of each treatment group are shown in [Table 2].

[3] = tested on: NIH3T3 cells; test: Intracellular ROS level after UVA irradiation (DCFH-DA, FACS) in fibroblasts; assay type: cell-based, mouse; conditions: 8 J/cm^2 UVA, peptide 1, 10, 50 μM, 24 hours after irradiation, FIG. 4A
Procedure: The reactive oxygen species level increases when UV is irradiated. Therefore, it was confirmed whether the reactive oxygen species level decreased again and the aging phenomenon caused by oxidative stress in cells was inhibited when treated with the peptide of the present invention.
First, NIH3T3 cells and HaCaT cells were seeded in a 6-well plate at a cell density of 5×10^5 cell/well, respectively, and then the cells were cultured in DMEM medium containing 10% fetal bovine serum (FBS) for 24 hours. The cultured cells were washed once with serum free DMEM medium, and then the peptide of the present invention was mixed in 1 mL of the serum free DMEM medium at each of concentrations of 1, 10, and 50 μM, and dispensed into the cells. A positive control (PC) was treated with 2.5 mM of N-Acetylcysteine (NaC) instead of the above peptide.
The cells were cultured in a CO2 incubator at 37° C. for 1 hour. The medium of the cultured cells was transferred to a tube, 1 ml of PBS was added, and then the NIH3T3 cells were irradiated with 8 J/cm^2 of UVA and the HaCaT cells were irradiated with 15 mJ/cm^2 of UVB using a UV irradiator (VILBER LOURMAT, Cat No.: 3102-BSU, France). […] After centrifugation, the cells were washed with PBS, and a fluorescence value was measured through FACS.

[4] = tested on: Fibronectin; test: Fibronectin mRNA level decreased by UV irradiation, RT-PCR in fibroblasts; assay type: cell-based, mouse; conditions: NIH3T3 cells, 8 J/cm^2 UVA, peptide 1, 10, 50 μM, 6 hours after irradiation; FIGS. 5A, 5C
Procedure: (§1) The expression of genes related to extracellular matrix components is inhibited when irradiated with UV.
(§2) First, NIH3T3 cells were seeded in a 6-well plate at a cell density of 5×10^5 cell/well, and then the cells were cultured in DMEM medium containing 10% fetal bovine serum (FBS) for 24 hours. The cultured cells were washed once with serum free DMEM medium, and then the peptide of the present invention was mixed in 1 mL of the serum free DMEM medium at each of concentrations of 1, 10, and 50 μM, and dispensed into the cells. A positive control (PC) was treated with 50 μM of Quercetin instead of the above peptide. The cells were cultured in a CO2 incubator at 37° C. for 1 hour.
(§3) The medium of the cultured cells was transferred to a tube (e-tube), 1 ml of PBS was added, and irradiation was performed with 8 J/cm^2 of UVA using a UV irradiator (VILBER LOURMAT, Cat No.: 3102-BSU, France). After removing PBS, 900 μL of the medium transferred to the tube was dispensed, and culture was performed in a CO2 incubator at 37° C. for 6 hours. The cultured cells were washed twice with PBS, and then RNA was extracted from the cells using easy blue (iNtRON, Cat. No.: 17061, Korea). The amount of RNA extracted was quantified, 1,000 ng of RNA was added per tube, and RT reaction was performed using a kit (enzynomics, Cat. No.: RT200, Korea). […]

[5] = tested on: Elastin; test: Elastin mRNA level decreased by UV irradiation, RT-PCR in fibroblasts; assay type: cell-based, mouse; conditions: NIH3T3 cells, 8 J/cm^2 UVA, peptide 1, 10, 50 μM, 6 hours after irradiation; FIGS. 5A, 5D
Procedure: as §1, §2, §3

## LCACCLHNCNECQ
[1]
  expression of the elastin gene: gradually increased as a concentration of the peptide increased
[2]
  mRNA level of SIRT1: increased
[3]
  intracellular reactive oxygen species level increased by UV irradiation: decreased
[4]
  mRNA level of fibronectin decreased by UV irradiation: increased again
[5]
  mRNA level of elastin decreased by UV irradiation: increased again
